We go through one compound from article PMC5520057, “Modulation of nongenomic activation of PI3K signalling by tetramerization of N-terminally-cleaved RXRα” (Nature Communications, 2017).

The target of test [1] is T1, RXRα-LBD (Homo sapiens, UniProt P19793).
T1 construct: The human RXRα LBD (residues Thr223 to Thr462); made in house; host or cells: Escherichia coli BL21
T1 sequence (P19793 223-462): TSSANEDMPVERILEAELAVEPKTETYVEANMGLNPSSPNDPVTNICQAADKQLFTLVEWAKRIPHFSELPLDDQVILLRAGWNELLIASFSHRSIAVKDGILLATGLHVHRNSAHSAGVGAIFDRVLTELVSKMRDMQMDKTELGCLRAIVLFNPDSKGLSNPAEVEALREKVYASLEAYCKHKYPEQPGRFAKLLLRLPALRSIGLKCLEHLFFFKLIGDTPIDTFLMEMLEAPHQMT
Nature of the test: Isothermal titration calorimetry (ITC), RXRα-LBD. Particulars: 25 °C, protein 50 μM in 25 mM Tris-HCl, pH 7.5, 150 mM NaCl, 0.1% DMSO, compound 1 mM. Format: binding. How it is done: (§1) The human RXRα LBD (residues Thr223 to Thr462) cloned as an N-terminal histidine-tagged fusion protein in pET15b expression vector was expressed in Escherichia coli BL21 strain (Stratagene). After sonication, cell extract was incubated with the His60 Ni Superflow resin, and His-tagged RXRα-LBD-resin complexes were washed, eluted and concentrated to 5 mg ml^−1 for subsequent trails. For crystallization experiment, bovine thrombin (Sigma) was used to cleave the His tag from the purified His-tagged RXRα-LBD. The resulting His tag was removed on the Resource-Q column (GE) using 0.1–1 M NaCl gradient and the Tris-Cl pH 8 buffer. RXRα-LDB was further purified using gel filtration on a Superdex 200 2660 column (GE) pre-equilibrated with the 75 mM NaCl, 20 mM Tris-Cl buffer (pH 8).
(§2) Binding of compounds to RXRα-LBD or mutant was studied in […] at 25 °C using isothermal titration calorimetry (ITC) assay that measures the heat either released or absorbed during binding. The purified His-tagged RXRα-LBD or mutant protein (50 μM in 25 mM Tris-HCl, pH 7.5, 150 mM NaCl, 0.1% DMSO) was placed in the sample cell of MicroCal VP-ITC titration calorimeter. The compounds to be studied were diluted to a concentration of 1 mM in the same buffer. All solutions were degassed before the titrations. […] Calorimetric data were analysed using MicroCal Origin software (version 7.0).

A further test relates to RXRα-LBD/L433D. Nature of the test: ITC, RXRα-LBD/L433D mutant. Format: binding, human. The following applies: 25 °C, protein 50 μM, pH 7.5, compound 1 mM. How it is done: as §1, §2
In a further test the test system is RXRα-LBD/R316E. Nature of the test: Non-denaturing gel electrophoresis, R316E mutant. In kind it is biochemical, human. The following applies: 9-cis-RA (0.5 μM) or K-80003 (20 μM), 3 h at 4 °C. How it is done:
as §1

The test system of test [2] is RXRα-LBD. Nature of the test: BS3 crosslinking, transfected RXRα-LBD. Format: cell-based. Particulars: HepG2 cells; 9-cis-RA (10^−7 M) or K-80003 (5 × 10^−6 M) for 6 h; BS3 1 mM; western blotting. How it is done: (§3) Cell lysates were then prepared and incubated with bis[sulfosuccinimidyl] suberate (BS3, Pierce) dissolved in dimethyl sulfoxide to a final concentration of 1 mM. The reactions were stopped with protein gel loading buffer. Samples were resolved by SDS/PAGE in 8% acrylamide gels and protein bands were visualized by western blotting.

Another test has as its system p85α / tRXRα interaction. Kind of test: coIP, p85α with tRXRα. The following applies: conclusion from structure and crosslinking. Format: cell-based.
Test [3] has as its system tRXRα. Kind of test: Subcellular localization of tRXRα, immunostaining. Particulars: MCF-7 cells; K-80003 (5 × 10^−6 M) for 3 h, then TNFα (10 ng ml^−1) for 30 min. Format: cell-based. How it is done:
(§4) Cells mounted on glass slides or tumour tissue frozen sections (5-μm-thick) were washed with PBS and fixed in 4% paraformaldehyde (PFA) for 15 min and permeabilized with PBS containing 0.1% Triton X-100 for 15 min. Fixed cells or tumour tissues were blocked with 5 mg ml^−1 BSA in PBS for 30 min at room temperature, followed with incubation with primary antibodies for 3 h and secondary antibodies at room temperature for 1 h and co-stained with 4′6′-diamidino-2-phenylindole (DAPI) to visualize nuclei. The images were taken under an LSM-510 confocal laser scanning microscope system (Carl Zeiss).

Test [4] has as its system tRXRα. Kind of test: Nuclear/cytoplasmic fractionation with BS3 crosslinking. The following applies: HEK293T cells, K-80003 (5 × 10^−6 M) for 6 h, one of three similar experiments. In kind it is cell-based. How it is done: as §3
Proteins or cell lysates were electrophoresed by SDS-PAGE gel and transferred to polyvinylidene difluoride (PVDF) membrane. The membranes were blocked with 5% skimmed milk in TBST (50 mM Tris-HCl (pH 7.4), 150 mM NaCl and 0.1% Tween20) for 1 h, then incubated with primary antibodies and secondary antibodies and detected using ECL system (Thermo). The dilutions of the primary antibodies were anti-RXRα (ΔN197, Santa Cruz) in 1:1,000, anti-PARP (H-250, Santa Cruz) in 1:3,000, anti-p85α (Millipore) in 1:1,000, anti-p-AKT (D9E, Cell Signaling Technology) in 1:1000, anti-AKT1/2/3 (H-136, Santa Cruz) in 1:1,000, anti-β-actin (Sigma) in 1:5,000, anti-c-myc (9E10, Santa Cruz) in 1:3,000, anti-HA (F-7, Santa Cruz) in 1:3,000, anti-Flag (F1804, Sigma) in 1:3,000. Images of all uncropped western blots can be found in Supplementary Figs 10–14.

In the next test the test system is RXRα. Nature of the test: MMTV-PyMT tumours, RXRα immunostaining. Format: in vivo, MMTV-PyMT mice. The following applies: diet with K-80003 (100 mg kg^−1) for 4 weeks; Δ197 anti-RXRα antibody. How it is done: as §4
For nude mice xenograft study, Myc-RXRα and Myc-tRXRα cloned into pcdna3.0 vector were stably transfected into MCF-7 cells, and the resulting stable clones and control clone (2 × 10^6 cells in 100 μl) were injected subcutaneously into nude mice (BALB/c, SPF grade, 16–18 g, 4–5-week old). For drug treatment, mice were intraperitoneally injected (i.p.) daily with K-80003 (20 mg kg^−1) diluted in Tween-80 or vehicle (tween-80). Body weight and tumour size were measured every 2 days. Mice were killed after 12-day drug treatment and the tumours removed for various assessments. […]

Procedure for p85α / tRXRα interaction: For coIP assay[29], HEK293T cells grown in 10 cm dishes were transfected with various plasmids. Cells were lysed in 1 ml of lysis buffer (20 mM Tris (pH 7.5), 150 mM NaCl, 1% Triton X-100, 1 mM EDTA, 30 mM NaF, 2 mM sodium pyrophosphate) with a cocktail of proteinase inhibitors (Roche). Lysates were incubated with the appropriate antibody for 12 h at 4 °C and subsequently incubated with protein A-Sepharose beads for 1 h. The immunoprecipitates were collected and washed three times with lysis buffer. The protein–antibody complexes recovered on beads were subjected to immunoblotting using appropriate antibodies after separation by SDS-PAGE. Input represents 5% of cell lysates used for coIP assays.

Consider `CC1=C(CC(=O)O)c2cc(F)ccc2/C1=C\c1ccc(C(C)C)cc1` [K-80003], for which the “N (stoichiometry)” value on RXRα-LBD [1] turned out to be 1.52. Moreover, the “binding to RXRα-LBD/L433D” value in the test with RXRα-LBD/L433D was “failed to bind to RXRα-LBD/L433D”. In the test on RXRα-LBD/R316E, the “effect on oligomeric state of RXRα-LBD/R316E” value was “exhibited mainly as a tetramer independent of the presence of either 9-cis-RA or K-80003”. Moreover, the “crosslinked RXRα-LBD species” value with RXRα-LBD [2] is “crosslinked species on SDS-PAGE gels of 25, 50 and 100 kDa, corresponding to monomer, dimer and tetramer of RXRα-LBD”. For the same compound, in the test with p85α / tRXRα interaction, the “inhibition of tRXRα interaction with p85α” value is recorded as “inhibits tRXRα interaction with p85α by promoting tRXRα tetramerization”. Also, the “effect on TNFα-induced cytoplasmic colocalization of tRXRα with p85α” value in the test on tRXRα [3] is reported as “inhibited, resulting in tRXRα nuclear localization”. For the same compound, the “distribution of tetrameric tRXRα” value in the test on tRXRα [4] is on record as “found exclusively in the nuclear fraction”. For the same compound, in the test with RXRα, the “RXRα staining localization in PyMT tumours” value is given as “mainly found in the nucleus”.
